Counter-ions that a name gives are not always drawn. Bounds are passed on as bounds.

One test addresses T1, Falcipain-2 (Plasmodium falciparum, UniProt Q8I6U4).
T1 sequence (Q8I6U4 244-484): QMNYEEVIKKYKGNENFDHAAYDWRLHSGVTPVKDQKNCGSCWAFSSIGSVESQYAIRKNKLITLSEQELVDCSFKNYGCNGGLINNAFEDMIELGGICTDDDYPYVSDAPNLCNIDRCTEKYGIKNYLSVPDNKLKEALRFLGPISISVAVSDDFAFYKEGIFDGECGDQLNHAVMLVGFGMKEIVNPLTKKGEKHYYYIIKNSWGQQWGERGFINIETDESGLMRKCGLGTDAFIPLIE
Briefly: falcipain-2 enzymatic assay (fluorogenic substrate H-D-VLR-AFC, endpoint). Conditions: parasitic recombinant enzyme, pH 5.5, quenched after 60 minutes. The format is biochemical. How it is done: (§1) 1) Determination of Falcipain-2, Falcipain-3, Vivapain-2, and Cathepsin S Proteolytic Catalytic Activity
(§2) Assays for Falcipain-2, Falcipain-3, and Vivapain-2 are carried out with parasitic recombinant enzymes. Cathepsins S is carried out with human recombinant enzymes. Standard assay conditions for the determination of kinetic constants used a fluorogenic peptide substrate, typically H-D-VLR-AFC (Falcipain-2, Falcipain-3, Vivapain-2) or KQKLR-AMC (Cathepsin S) and are determined in 100 mM sodium acetate, pH 5.5, containing 10 mM DTT and 0.5 mM CHAPS (Falcipain-2, Falcipain-3, Vivapain-2), or 50 mM MES, pH 6.5, containing 0.5 mM CHAPS, 10 mM L-CYS, 5 mM EDTA (Cathepsin S). Stock substrate solutions are prepared at 20 mM in DMSO. The activity assays contained 30 uM substrate (Falcipain-2, Falcipain-3, Vivapain-2), and 30 uM substrate (Cathepsin S). All assays contained 1% DMSO. […] All assays are conducted at ambient temperature as end point assays being quenched after 60 minutes with the exception of Cathepsin S at 90 minutes, with 16.6 uM E-64 in 1% DMSO. Product formation (AFC or AMC) is determined from fluorescence (excitation at 405 nm; emission at 530 nm, AFC, or excitation at 360 nm; emission at 460 nm, AMC) monitored with a LJL Aquest (Molecular Devices) fluorescent plate reader. In the case of kinetic reads (used in mechanism of action studies), the reaction is not quenched but is read in the plate reader every 3 minutes for approximately 90 minutes. In addition, the mechanism of action studies for Falcipain-2 utilize Z-LR-AMC as the substrate. Product formation is determined from the fluorescence of AMC, measured with a LJL Acquest (Molecular Devices) fluorescent plate reader (excitation at 360 nm; emission at 460 nm).
(§3) Potential inhibitors are evaluated using the quenched read (endpoint) method. Assays are carried out in the presence of variable concentrations of test compound. Reactions are initiated by addition of enzyme and substrate to wells containing inhibitor stamped in 100% DMSO. For endpoint assays, the reaction is quenched with the addition of E64. Dose response data is fit to an IC50 curve with preset fitting tools according to equation 1:
(§4) y=a+(b−a)/(1+(10^X/10^C)^d) (1)
(§5) where y is the response at a particular inhibitor concentration x, a is the minimum response value, b is the maximum response value, c is the IC50, and d is the slope of the IC50 curve. Assuming the compound is a competitive inhibitor, the apparent KI can be calculated from IC50, as shown in equation 2: […]

A further test deals with T2, Falcipain-3 (Plasmodium falciparum, UniProt Q8IIL0).
T2 sequence (Q8IIL0 243-492): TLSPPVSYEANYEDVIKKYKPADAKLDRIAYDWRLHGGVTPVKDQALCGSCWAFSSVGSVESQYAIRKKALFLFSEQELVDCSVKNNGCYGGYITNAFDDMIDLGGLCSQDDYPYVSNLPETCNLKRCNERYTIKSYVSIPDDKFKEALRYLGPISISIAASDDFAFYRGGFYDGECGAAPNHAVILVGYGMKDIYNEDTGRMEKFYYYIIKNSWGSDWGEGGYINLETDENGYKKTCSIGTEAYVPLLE
Briefly: falcipain-3 enzymatic assay (fluorogenic substrate H-D-VLR-AFC, endpoint). The format is biochemical. Conditions: parasitic recombinant enzyme, pH 5.5, quenched after 60 minutes. How it is done:
as §1, §2, §3, §4, §5

Test [1] concerns Plasmodium falciparum parasite. Kind of test: whole cell activity against the Plasmodium falciparum parasite. The format is cell-based. From the text:
Equation 7 describes the apparent KI for competitive compounds and was substituted into equations 5 and 6 to generate the relevant binding constants from the fitting routine. In addition, the initial and final velocities were fit to equation 3 to further define the binding mechanism and potency. A complete discussion of this kinetic treatment has been fully described (Morrison et al., Adv. Enzymol. Relat. Areas Mol. Biol., 1988, 61, 201). 2) Determination of Whole Cell Activity Against the Plasmodium falciparum Parasite Compounds can be evaluated for whole cell activity against the Plasmodium falciparum parasite according to the procedure described in Sijwali S, and Rosenthal P. J., (2004) Proceedings of the National Academy of Sciences of the United States of America (PNAS) 101(13), 4384-4389 (see in particular “Measurement of Parasite Growth rates and Inhibitor Sensitivity” on page 4385); IC50 values can be calculated as described in Singh A. and Rosenthal P. J., (2001) Antimicrobial Agents and Chemotherapy 45(3), 949-951 (see in particular page 950, first column); synchronised parasites can be prepared as described in Divo A. A. et al., (1985) Protozool. 32, 59-64.

With `CN1CCN(Cc2ccc(C(=O)NN(c3nc(C#N)nc4c3ncn4C(=O)N3CCN(C)CC3)C3CCCC3)cc2)CC1` [Example 34, N′-{2-cyano-9-[(4-methyl-1-piperazinyl)carbonyl]-9H-purin-6-yl}-N′-cyclopentyl-4-[(4-methyl-1-piperazinyl)methyl]benzohydrazide trifluoroacetate], the IC50 – broadly, the concentration that inhibits the measured activity by half – is 0.001 to 0.0025 µM on Falcipain-2, 0.015 to 0.15 µM at Falcipain-3 and 0.015 to 0.15 µM in test [1].
With `CN1CCN(C(=O)n2cnc3c(N(NC(=O)OC(C)(C)C)C4CCCCC4)nc(C#N)nc32)CC1` [Example 35, 1,1-dimethylethyl 2-{2-cyano-9-[(4-methyl-1-piperazinyl)carbonyl]-9H-purin-6-yl}-2-cyclohexylhydrazinecarboxylate trifluoroacetate], the results for the IC50 (at Falcipain-2; on Falcipain-3; in test [1]) were at most 0.001 µM, 0.001 to 0.0025 µM and 0.15 to 0.25 µM, respectively.
Taken in the same sequence, the figures for `CN1CCN(c2cccc(C(=O)NN(c3nc(C#N)nc4c3ncn4C)C3CCCCC3)c2)CC1` [Example 36, N′-(2-cyano-9-methyl-9H-purin-6-yl)-N′-cyclohexyl-3-(4-methyl-1-piperazinyl)benzohydrazide trifluoroacetate] were 0.0025 to 0.015 µM, 0.015 to 0.15 µM and 0.015 to 0.15 µM.
Taken in the same sequence, the figures for `CN(C)CCCn1cnc2c(N(NC(=O)c3cccc(N4CCN(C)CC4)c3)C3CCCC3)nc(C#N)nc21` [Example 37, N′-{2-cyano-9-[3-(dimethylamino)propyl]-9H-purin-6-yl}-N′-cyclo pentyl-3-4-methyl-1-piperazinyl)benzohydrazide trifluoroacetate] were 0.001 to 0.0025 µM, 0.15 to 0.25 µM and 0.0025 to 0.015 µM.
Taken in the same sequence, the figures for `CN1CCN(Cc2ccc(C(=O)NN(c3nc(C#N)nc4c3ncn4C(=O)N3CCN(C)CC3)C3CCCCC3)cc2)CC1` [Example 38, N′-{2-cyano-9-[(4-methyl-1-piperazinyl)carbonyl]-9H-purin-6-yl}-N′-cyclohexyl-4-[(4-methyl-1-piperazinyl)methyl]benzohydrazide trifluoroacetate] were at most 0.001 µM, 0.0025 to 0.015 µM and 0.015 to 0.15 µM.
As for `CN(C)CCn1cnc2c(N(NC(=O)OC(C)(C)C)C3CCCC3)nc(C#N)nc21` [Example 39, 1,1-dimethylethyl 2-{2-cyano-9-[2-(dimethylamino)ethyl]-9H-purin-6-yl}-2-cyclopentylhydrazinecarboxylate trifluoroacetate], the IC50 at Falcipain-2 is 0.0025 to 0.015 µM; at Falcipain-3 it was 0.015 to 0.15 µM; in test [1] it was 0.015 to 0.15 µM.
In the case of `CN(C)CCn1cnc2c(N(NC(=O)c3ccc(CN4CCN(C)CC4)cc3)C3CCCC3)nc(C#N)nc21` [Example 40, N′-{2-cyano-9-[2-(dimethylamino)ethyl]-9H-purin-6-yl}-N′-cyclopentyl-4-[(4-methyl-1-piperazinyl)methyl]benzohydrazide trifluoroacetate], the values for the IC50 (on Falcipain-2; on Falcipain-3; in test [1]) were 0.0025 to 0.015 µM, 0.25 to 0.4 µM and 0.015 to 0.15 µM, respectively.
The like results for `CN(C)CCn1cnc2c(N(NC(=O)c3cccc(N4CCN(C)CC4)c3)C3CCCC3)nc(C#N)nc21` [Example 41, N′-{2-cyano-9-[2-(dimethylamino)ethyl]-9H-purin-6-yl}-N′-cyclopentyl-3-(4-methyl-1-piperazinyl)benzohydrazide bis(trifluoroacetate)] were, in that order, 0.001 to 0.0025 µM, 0.015 to 0.15 µM and 0.015 to 0.15 µM.
With `CN(C)CCn1cnc2c(N(NC(=O)c3cccc(-c4ccc(CN5CCN(C)CC5)cc4)n3)C3CCCC3)nc(C#N)nc21` [Example 42, N′-{2-cyano-9-[2-(dimethylamino)ethyl]-9H-purin-6-yl}-N′-cyclopentyl-6-{4-[(4-methyl-1-piperazinyl)methyl]phenyl}-2-pyridinecarbohydrazide trifluoroacetate], the IC50 at Falcipain-2 is 0.0025 to 0.015 µM; on Falcipain-3, 0.015 to 0.15 µM; in test [1], 0.015 to 0.15 µM.
